Assay results published in ChEMBL document CHEMBL1141846, “New verticillin and glisoprenin analogues from gliocladium catenulatum, a mycoparasite of aspergillus flavus sclerotia” (1999).

Assays:
Staphylococcus aureus [1] = assay: Antibacterial activity against Staphylococcus aureus ATCC 14053 at 100 ug/disk by standard petri-plate assay; type: functional; settings: read-out: IZ
Bacillus subtilis [2] = assay: Antibacterial activity against Bacillus subtilis ATCC 6051 at 100 ug/disk by standard petri-plate assay; type: functional; settings: read-out: IZ
Staphylococcus aureus [3] = assay: Antibacterial activity against Staphylococcus aureus ATCC 14053 at 50 ug/disk by standard petri-plate assay; type: functional, organism-based
Bacillus subtilis [4] = assay: Antibacterial activity against Bacillus subtilis ATCC 6051 at 50 ug/disk by standard petri-plate assay; type: functional, organism-based

CC(O)[C@@]12SS[C@]3(C(=O)N1C)[C@@H](O)C1([C@@]45c6ccccc6N[C@@H]4N4C(=O)[C@]6(C(C)O)SS[C@]4(C(=O)N6C)[C@H]5O)c4ccccc4N[C@@H]1N3C2=O (stereo partly drawn) [VERTICILLIN D]
zone of inhibition at 100 µg/disc (Staphylococcus aureus [1]): 11 mm
zone of inhibition at 100 µg/disc (Bacillus subtilis [2]): 23 mm

CC(=O)[C@@]12SS[C@]3(C(=O)N1C)[C@@H](O)[C@]1([C@@]45c6ccccc6N[C@@H]4N4C(=O)[C@]6(C(C)O)SS[C@]4(C(=O)N6C)[C@H]5O)c4ccccc4N[C@@H]1N3C2=O (stereo partly drawn) [VERTICILLIN F]
zone of inhibition at 100 µg/disc (Staphylococcus aureus [1]): 11 mm
zone of inhibition at 100 µg/disc (Bacillus subtilis [2]): 23 mm

GENTAMICIN SULFATE
inhibition zone (IZ) (Staphylococcus aureus [3]): 25 mm
inhibition zone (IZ) (Bacillus subtilis [4]): 25 mm

CC(=O)[C@@]12SS[C@]3(C(=O)N1C)[C@@H](O)[C@]1([C@@]45c6ccccc6N[C@@H]4N4C(=O)[C@]6(C(C)=O)SS[C@]4(C(=O)N6C)[C@H]5O)c4ccccc4N[C@@H]1N3C2=O [VERTICILLIN E]
zone of inhibition at 100 µg/disc (Staphylococcus aureus [1]): 11 mm
zone of inhibition at 100 µg/disc (Bacillus subtilis [2]): 23 mm
